The record followed here is EPA's ToxRefDB 2.

In data set [1] the test system is rat. Conditions: Combined chronic toxicity/carcinogenicity, sprague dawley, Oral, [Not Specified], dose end: 104 week, group: systemic.
Data set [2] deals with rat. Conditions: Prenatal developmental toxicity study, sprague dawley, Oral, Gavage/Intubation, dose end: 16 GD.
The test system of data set [3] is dog. Conditions: Chronic toxicity, beagle, Oral, Capsule, dose end: 52 week, group: systemic.
The subject of data set [4] is rat. Conditions: Subchronic oral toxicity in rodents, sprague dawley, Feed, dose end: 13 week, group: systemic.
The subject of data set [5] is rat. Conditions: Multigenerational reproductive toxicity study, sprague dawley, Oral, Feed, dose end: 2 generation.
The test system of data set [6] is dog. The note with it: Subchronic oral toxicity in nonrodent, beagle, Capsule, dose end: 13 week, group: systemic.
Data set [7] concerns mouse. Conditions: Carcinogenicity, cd1, Oral, Feed, dose end: 80 week, group: systemic.
Data set [8] deals with rat. Conditions: Subchronic oral toxicity in rodents, sprague dawley, Feed, dose end: 13 week, group: systemic. The source holds these as a separate data set.
Data set [9] relates to dog. Conditions: Sub-acute repeat dose toxicity, beagle, Oral, Feed, group: systemic.
Data set [10] deals with mouse. Conditions: Subchronic oral toxicity in rodents, b6c3f1, Feed, dose end: 90 day, group: systemic.
For data set [11], the system named is rat. The note with it: Prenatal developmental toxicity study, sprague dawley, Inhalation, Whole-Body, dose end: 19 GD, group: maternal.
In data set [12] the test system is rat. Conditions: Multigenerational reproductive toxicity study, sprague dawley, Inhalation, Whole-Body, dose end: 2 generation.
[13] abbreviates: systemic / pathology microscopic / liver / discolored.
[14] abbreviates: systemic / pathology microscopic / liver / discolored + systemic / clinical chemistry / cholesterol / cholesterol + systemic / in life ….
[15] abbreviates: group: developmental, developmental / developmental malformation / bone / thickened + developmental / developmental malformation / bone / wavy.
Setting [16] is: group: maternal, systemic / in life observation / clinical signs / abdominogenital staining + systemic / in life observation / clinical signs / discharge on ….
Where [17] appears, read: systemic / urinalysis / porphyrins / porphyrins.
[18] abbreviates: systemic / urinalysis / porphyrins / porphyrins + systemic / organ weight / liver / absolute.
The mark [19] stands for this setting: systemic / clinical chemistry / alanine aminotransferase (alt/sgpt) / alanine aminotransferase (alt/sgpt) + systemic / clinical chemistry / ….
[20] abbreviates: group: offspring, systemic / in life observation / body weight / offspring (pup) weight.
Where [21] appears, read: group: parental, systemic / hematology / mean corpuscular (cell) volume (mcv) / mean corpuscular (cell) volume (mcv) + systemic / hematology / mean ….
Where [22] appears, read: systemic / in life observation / body weight / body weight gain + systemic / urinalysis / porphyrins / porphyrins.
Setting [23] is: systemic / in life observation / body weight / body weight gain + systemic / urinalysis / porphyrins / porphyrins + systemic / hematology / ….
Setting [24] is: systemic / in life observation / body weight / body weight gain + systemic / pathology microscopic / liver / inflammation.
Where [25] appears, read: systemic / in life observation / body weight / body weight + systemic / in life observation / food consumption / food consumption + systemic….
Setting [26] is: systemic / in life observation / body weight / body weight gain + systemic / in life observation / body weight / body weight + systemic / in….
The mark [27] stands for this setting: group: offspring, systemic / organ weight / kidney / nos + systemic / in life observation / body weight / offspring (pup) weight + developmental / ….
[28] abbreviates: group: parental, systemic / pathology gross / lung / discolored.
[29] abbreviates: group: reproductive, reproductive / offspring survival early / birth index / live birth index + reproductive / reproductive performance / estrous cycle / corpora….

Where only a bound is given, the exact number is not on record here.

In the case of `CCOC(=O)C(Cl)Cc1cc(-n2nc(C)n(C(F)F)c2=O)c(F)cc1Cl` (centres undefined) [Carfentrazone-ethyl], the LEL with rat [1] (setting [13]) is 12 mg/kg/day; in the data set on rat [2] (setting [15]) it was 1250 mg/kg/day; with rat [2] (setting [16]), 600 mg/kg/day; with dog [3] (setting [17]), 150 mg/kg/day; with rat [4] (systemic / in life observation / clinical signs / urine, discoloration + systemic / in life observation / food consumption / food …), 226 mg/kg/day; in the data set with rat [5] (setting [20]) it was 343 mg/kg/day. The LEL was determined as 343 mg/kg/day in the data set with rat [5] (setting [21]), 150 mg/kg/day in the data set with dog [6] (setting [22]) and 10 mg/kg/day in the data set with mouse [7] (setting [24]). Also, the LOAEL (usually the lowest dose or exposure tested at which an adverse effect was seen) in the data set on rat [1] (setting [13]) was 12 mg/kg/day; in the data set with rat [2] (setting [15]), 1250 mg/kg/day; in the data set with rat [2] (setting [16]), 600 mg/kg/day; with dog [3] (setting [17]), 150 mg/kg/day; in the data set on rat [4] (setting [19]), 470 mg/kg/day; in the data set on rat [5] (setting [20]), 343 mg/kg/day. The LOAEL with rat [5] (setting [21]) came to 343 mg/kg/day; in the data set with dog [6] (setting [22]), 150 mg/kg/day; in the data set on mouse [7] (systemic / pathology microscopic / liver / inflammation + systemic / in life observation / mortality / mortality + systemic / pathology …), 110 mg/kg/day. Moreover, the NEL in the data set with rat [1] (setting [14]) came out at 3 mg/kg/day; in the data set on rat [2] (setting [15]), 600 mg/kg/day; with rat [2] (setting [16]), 100 mg/kg/day; in the data set with dog [3] (setting [18]), 50 mg/kg/day; with rat [4] (setting [19]), 58 mg/kg/day; in the data set with rat [5] (setting [20]) it was 127 mg/kg/day. Besides, the NEL with rat [5] (setting [21]) is 127 mg/kg/day; in the data set with dog [6] (setting [23]), 50 mg/kg/day; in the data set on mouse [7] (setting [24]), under 10 mg/kg/day. Besides, the NOAEL (in general, the highest tested level that showed no adverse finding) is 3 mg/kg/day with rat [1] (setting [14]); 600 mg/kg/day in the data set with rat [2] (setting [15]); 100 mg/kg/day in the data set on rat [2] (setting [16]); 50 mg/kg/day with dog [3] (setting [18]); 226 mg/kg/day in the data set with rat [4] (setting [19]); 127 mg/kg/day in the data set with rat [5] (setting [20]). Besides, the results for the NOAEL with rat [5] (setting [21]), in the data set on dog [6] (setting [23]) and with mouse [7] (systemic / in life observation / body weight / body weight gain + systemic / pathology microscopic / liver / inflammation + systemic / in …) were 127 mg/kg/day, 50 mg/kg/day and 10 mg/kg/day, respectively.
Regarding `CC(C)[C@H](C(=O)O[C@H](C#N)c1cccc(Oc2ccccc2)c1)c1ccc(Cl)cc1` [Esfenvalerate], the results for the LOAEL in the data set with rat [8] (systemic / in life observation / clinical signs / jerking movements), in the data set with dog [9] (systemic / in life observation / body weight / body weight + systemic / in life observation / clinical signs / ataxia) and in the data set on mouse [10] (setting [19]) were 7.5 mg/kg/day, 7.5 mg/kg/day and 106 mg/kg/day, respectively. For the same compound, the NOAEL in the data set with rat [8] (systemic / in life observation / clinical signs / jerking movements + systemic / in life observation / body weight / body weight gain + …) worked out at 2.5 mg/kg/day; in the data set with dog [9] (setting [25]), 2.5 mg/kg/day; in the data set with mouse [10] (setting [19]), 30.5 mg/kg/day. Moreover, the LEL in the data set with rat [8] (systemic / in life observation / clinical signs / jerking movements + systemic / organ weight / kidney / relative to body weight) was found to be 7.5 mg/kg/day; with dog [9] (systemic / in life observation / body weight / body weight + systemic / in life observation / clinical signs / ataxia + systemic / in life …) it was 7.5 mg/kg/day; with mouse [10] (systemic / clinical chemistry / glucose / glucose + systemic / clinical chemistry / triglycerides / triglycerides) it was 30.5 mg/kg/day. Besides, the NEL in the data set with rat [8] (systemic / organ weight / kidney / relative to body weight + systemic / hematology / erythrocyte (rbc) count differential / erythrocyte (rbc…) was found to be 2.5 mg/kg/day; in the data set on dog [9] (setting [25]) it was 2.5 mg/kg/day; in the data set on mouse [10] (setting [19]) it was 10.5 mg/kg/day.
Regarding `CI` [Methyl iodide], the lowest-observed-adverse-effect level (LOAEL) in the data set with rat [11] (systemic / in life observation / body weight / body weight gain) was determined as 60 ppm; in the data set on rat [12] (setting [27]), 5 ppm; in the data set with rat [12] (setting [28]), 5 ppm; in the data set on rat [12] (setting [29]) it was 50 ppm. For the same compound, the LEL in the data set on rat [11] (setting [26]) stood at 60 ppm; in the data set on rat [12] (setting [27]), 5 ppm; in the data set on rat [12] (setting [28]) it was 5 ppm; in the data set with rat [12] (setting [29]), 50 ppm. For the same compound, the NEL is 20 ppm with rat [11] (setting [26]), under 5 ppm with rat [12] (setting [27]), under 5 ppm in the data set with rat [12] (setting [28]) and 20 ppm with rat [12] (setting [29]). Moreover, the NOAEL was 20 ppm in the data set with rat [11] (setting [26]), under 5 ppm with rat [12] (setting [27]), under 5 ppm in the data set with rat [12] (setting [28]) and 20 ppm in the data set with rat [12] (setting [29]).
